These results are taken from patent US20110028444A1, “PHARMACEUTICALLY ACCEPTABLE SALTS OF ANTI-INFECTION QUINOLONE COMPOUNDS” (priority 2008, published 2011).

≈ marks a conversion by molar mass, not a printed value.

Common to all, as to assay type: cell-based
Experiment [1] deals with Staphylococcus aureus. The experiment can be described thus: In-vitro antibacterial test, agar dilution MIC. Particulars: agar dilution; for MIC: Staphylococcus aureus, read-out: In-vitro MIC.
Description: (§4) The test bacterial strains were the standard quality control test strains of Klebsiella pneumoniae strains (Strains No. CMCC 46114-8), Pseudomonas aeruginosa (Strains No. ATCC 27853), Escherichia coli (Strains No. ATCC25922), and Staphylococcus aureus cocci (Strains No. ATCC25925). Other bacteria included those isolated from sputum, throat swab or urine of patients with acute bacterial respiratory tract infection or urinary tract infection and identified by the hospitals.
(§5) HCl levofloxacin injection and NaCl ciprofloxacin lactate injection were diluted with sterilized distilled water to a concentration of 1920 μg/mL.
In experiment [2] the test system is Pseudomonas aeruginosa. The experiment can be described thus: In-vitro antibacterial test, agar dilution MIC. The settings on record: agar dilution; for MIC: Pseudomonas aeruginosa, read-out: In-vitro MIC. (In general: In agar dilution the substance is mixed into plates at graded concentrations.)
Description: as §4, §5
Experiment [3] has as its system Klebsiella pneumoniae, Pseudomonas aeruginosa, Staphylococcus aureus, Escherichia coli, Enterococcus faecalis, Streptococcus pneumoniae, Enterobacter cloacae …. The experiment can be described thus: In-vitro antibacterial tests, summary over the tested bacteria. Particulars: for antibacterial activity (in words): against the eight tested bacteria. The method, then: (§1) Test method: the agar dilution method was used for the minimum inhibitory concentration (MIC) determination. The antibacterial chemicals were mixed with given amounts of agar in various concentrations and the mixtures were made into solid plates. Each plate had the antibacterial concentration two times higher than the next plate. Bacteria species were then added to the surface of the plates, cultured, and observed for their growth.
(§2) Other bacteria included those isolated from sputum, throat swab or urine of patients with acute bacterial respiratory tract infection or urinary tract infection and identified by the hospitals.
(§3) (S)-6-fluoro-1-methyl-4-oxo-7-(1-piperazinyl)-1H,4H-[1,3]thiazeto[3,2-a]quino line-3-carboxylic acid lactate and other test samples, equivalent to 96 mg of ulifloxacin, were dissolved in sterilized distilled water to make up 50 mL of each solution.

The test system of experiment [4] is Escherichia coli. Description: In-vitro antibacterial test, agar dilution MIC. The settings on record: agar dilution; for MIC: Escherichia coli, read-out: In-vitro MIC.
Description: as §4, §5
Experiment [5] relates to Streptococcus pneumoniae. The experiment can be described thus: In-vitro antibacterial test, agar dilution MIC. Particulars: agar dilution; for MIC: Streptococcus pneumoniae, read-out: In-vitro MIC. The method, then:
as §1, §2, §3

The subject of experiment [6] is Enterobacter cloacae. The experiment can be described thus: In-vitro antibacterial test, agar dilution MIC. Particulars: agar dilution, read-out: In-vitro MIC.
Description: as §4, §5
For experiment [7], the system named is Klebsiella pneumoniae. Description: In-vitro antibacterial test, agar dilution MIC. The settings on record: Klebsiella pneumoniae.
Description: as §4, §5

Take “(S)-6-fluoro-1-methyl-4-oxo-7-(1-piperazinyl)-1H,4H-[1,3]thiazeto[3,2-a]quinoline-3-carboxylic acid aspartate [Compound 7]”: the results for the “In-vitro MIC” value in experiment [1], in experiment [2] and in experiment [4] were 0.25 µg/mL, 0.25 µg/mL and 0.02 µg/mL, respectively. In experiment [3], the “antibacterial activity (in words)” value is given as “relatively strong antibacterial activity”.

With “(±)-6-fluoro-1-methyl-4-oxo-7-(1-piperazinyl)-1H,4H-[1,3]thiazeto[3,2-a]quino line-3-carboxylic acid aspartate [Ulifloxaci aspartate (±), reference compound]”, the “In-vitro MIC” value amounted to 0.5 µg/mL in experiment [1], 0.5 µg/mL in experiment [2] and 0.1 µg/mL in experiment [4].

For the compound “(S)-6-fluoro-1-methyl-4-oxo-7-(1-piperazinyl)-1H,4H-[1,3]thiazeto[3,2-a]quinoline-3-carboxylic acid glutamate [Compound 8]”, the “In-vitro MIC” value in experiment [1] was determined as 0.25 µg/mL; in experiment [4], 0.01 µg/mL; in experiment [5], 0.125 µg/mL. In addition, the “antibacterial activity (in words)” value in experiment [3] is reported as “relatively strong antibacterial activity”.

Take `C[C@H]1Sc2c(C(=O)O)c(=O)c3cc(F)c(N4CCNCC4)cc3n21` [Compound 3, (R)-6-fluoro-1-methyl-4-oxo-7-(1-piperazinyl)-1H,4H-[1,3]thiazeto[3,2-a]quinoline-3-carboxylic acid]: the minimal inhibitory concentration (MIC) (usually the lowest concentration found to suppress growth) was 2.83 µg/mL (≈ 8.09 µM) in experiment [1]; 2 µg/mL (≈ 5.72 µM) in experiment [2]; 4 µg/mL (≈ 11.4 µM) in experiment [6]; 0.225 µg/mL (≈ 0.644 µM) in experiment [4]; 0.25 µg/mL (≈ 0.716 µM) in experiment [5].

Turning to “(R)-6-fluoro-1-methyl-4-oxo-7-(1-piperazinyl)-1H,4H-[1,3]thiazeto[3,2-a]quinoline-3-carboxylic acid aspartate [Compound 11]”, the “In-vitro MIC” value in experiment [1] was 2 µg/mL; in experiment [2], 1 µg/mL; in experiment [4], 0.25 µg/mL.

“(R)-6-fluoro-1-methyl-4-oxo-7-(1-piperazinyl)-1H,4H-[1,3]thiazeto[3,2-a]quinoline-3-carboxylic acid glutamate [Compound 12]”: the “In-vitro MIC” value stood at 2 µg/mL in experiment [1], 0.5 µg/mL in experiment [4] and 0.5 µg/mL in experiment [5].

In the case of `O=C(O)c1cn(C2CC2)c2cc(N3CCNCC3)c(F)cc2c1=O` [Ciprofloxacin, reference compound], the MIC in experiment [1] was 0.5 to 1 µg/mL (≈ 1.51 to 3.02 µM); in experiment [7] it was 0.0313 to 0.0625 µg/mL (≈ 0.0945 to 0.189 µM); in experiment [2], 0.5 µg/mL (≈ 1.51 µM); in experiment [4] it was 0.0313 µg/mL (≈ 0.0945 µM).

For `C[C@H]1COc2c(N3CCN(C)CC3)c(F)cc3c(=O)c(C(=O)O)cn1c23` [Levofloxacin, reference compound], the MIC was 0.5 µg/mL (≈ 1.38 µM) in experiment [1], 0.0125 µg/mL (≈ 0.0346 µM) in experiment [7], 2 µg/mL (≈ 5.53 µM) in experiment [2] and 0.0313 µg/mL (≈ 0.0866 µM) in experiment [4].

Turning to `C[C@@H]1Sc2c(C(=O)O)c(=O)c3cc(F)c(N4CCNCC4)cc3n21` [Compound 2, (S)-6-fluoro-1-methyl-4-oxo-7-(1-piperazinyl)-1H,4H-[1,3]thiazeto[3,2-a]quinoline-3-carboxylic acid], the MIC in experiment [1] came to 0.177 µg/mL (≈ 0.507 µM); in experiment [2], 0.177 µg/mL (≈ 0.507 µM); in experiment [6], 0.5 µg/mL (≈ 1.43 µM); in experiment [4], 0.0125 µg/mL (≈ 0.0358 µM); in experiment [5], 0.025 µg/mL (≈ 0.0716 µM). In experiment [3], the “antibacterial activity relative to R-ulifloxacin” value was 3 to 10 times. In addition, the “antibacterial activity relative to racemic ulifloxacin” value in experiment [3] is recorded as “two or more times”. In addition, the “antibacterial activity (in words)” value in experiment [3] is reported as “relatively strong antibacterial activity”.

Regarding “(±)-6-fluoro-1-methyl-4-oxo-7-(1-piperazinyl)-1H,4H-[1,3]thiazeto[3,2-a]quinoline-3-carboxylic acid glutamate [Ulifloxaci glutamate (±), reference compound]”, the “In-vitro MIC” value in experiment [1] came to 0.5 µg/mL; in experiment [4] it was 0.125 µg/mL; in experiment [5], 0.2 µg/mL.
